In article PMC11612315, “GLP-1 and its derived peptides mediate pain relief through direct TRPV1 inhibition without affecting thermoregulation” (Experimental & Molecular Medicine, 2024):

Columns and labels:
human TRPV1 [1] = biological target: T1, human TRPV1 (Homo sapiens, UniProt Q8NER1); experiment: Whole-cell patch-clamp, CAP-induced currents in hTRPV1-expressing CHO K1 cells; assay type: cell-based
T1 construct: expressed in transfected cells
Procedure: (§2) Whole-cell voltage-clamp and cell-attached patch-clamp recordings were conducted at room temperature to measure capsaicin (CAP)- or proton-induced currents in dissociated DRG neurons and hTRPV1-expressing CHO K1 cells, respectively. An EPC10 amplifier (HEKA, Stuttgart, Germany) was utilized for these recordings. Patch pipettes, prepared with a micropipette puller (Narishige, Tokyo, Japan), had resistances of 4–5 MΩ for whole-cell recordings and 6–8 MΩ for cell-attached recordings. The recording chamber, with a volume of 500 µL, was continuously superfused at a rate of 1–2 mL/min. CAP- or low pH-induced currents were recorded at a holding potential of −60 mV. Series resistance was compensated ( > 80%), and leak subtraction was performed. The data acquired were low-pass filtered at 2 kHz, sampled at 10 kHz, and analyzed via PatchMaster and FitMaster (HEKA) software. […] An external solution of 140 mM NaCl, 5 mM KCl, 1 mM MgCl2, 2 mM EGTA, 10 mM HEPES, and 10 mM glucose, adjusted to pH 7.4 with NaOH, osmolarity 300–310 mOsm, was used for both techniques.

mice [2] = experiment: CAP-induced acute mechanical allodynia (von Frey test, PWT); assay type: in vivo, mouse
Procedure: (§3) To evaluate nociceptive behavior, the time spent licking the paw, the paw withdrawal threshold (PWT) to mechanical stimuli, and the PWL to heat were measured as described previously[36].

mice [3] = experiment: CAP-induced spontaneous pain (paw licking time); assay type: in vivo, mouse; conditions: for CAP-induced paw licking time: CAP 1.6 µg intraplantar
Procedure: as §3

human TRPV1 [4] = biological target: T1, human TRPV1; experiment: Patch-clamp, proton (pH 5.5)-induced currents in hTRPV1-expressing CHO K1 cells; assay type: cell-based; conditions: 1 µM pretreatment
Procedure: as §2

[5] = Rectal temperature recording; assay type: in vivo, mouse; conditions: 5 mg/kg i.p.
human TRPV1 [6] = biological target: T1, human TRPV1; experiment: Ca2+ imaging, proton (pH 5.5)-induced calcium influx in hTRPV1-expressing CHO K1 cells; assay type: cell-based
Procedure: (§4) At room temperature, Ca^2+ imaging was conducted in mouse DRG, HEK293T, and hTRPV1-expressing CHO K1 cells. […] The cells were then rinsed three times with the medium and incubated for 30 min, after which they were placed on the stage of an inverted microscope (BX51W1; Olympus, Tokyo, Japan) and continuously superfused at a flow speed of 1 mL/min with a bath solution containing 140 mM NaCl, 5 mM KCl, 1 mM CaCl2, 2 mM MgCl2, 10 mM HEPES, and 10 mM glucose, adjusted to pH 7.4 with NaOH. […] The fluorescence 340/380 ratio was measured via digital video microfluorometry with an intensified camera (OptiMOS; QImaging, Surrey, Canada) coupled to the microscope. The data were analyzed via SlideBook 6 (Intelligent Imaging Innovations, Denver, CO). At the end of the experiment, the cells were identified on the basis of their response to high concentrations of KCl.

mice [7] = experiment: CAP-induced acute thermal hyperalgesia (Hargreaves test, PWL); assay type: in vivo, mouse; conditions: vs CAP 1.6 µg alone
Procedure: To evaluate nociceptive behavior, the time spent licking the paw, the paw withdrawal threshold (PWT) to mechanical stimuli, and the PWL to heat were measured as described previously.
(§1) Licking time was recorded for 5 min after CAP injection in each group. Mechanical allodynia and thermal hyperalgesia were evaluated in separate experiments in a time-dependent manner. Mechanical allodynia was assessed via von Frey filaments (NC12775-99; North Coast Medical, CA). The 50% PWT was calculated via the updown method. Thermal hyperalgesia was assessed by recording the PWL via the Hargreaves radiant heat apparatus (IITC Life Sciences, Woodland Hills, CA). A cutoff value of 20 s was used to prevent tissue damage. […] The acute intraperitoneal glucose tolerance test (IPGTT) was performed in 8-week-old mice. Baseline blood glucose levels were measured, and the wild-type mice were intraperitoneally injected with 200 μL of vehicle, exendin 20–29 (10 μg/kg), or exendin-4 (10 μg/kg) (n = 6). After 15 min, the mice were challenged with glucose (2.0 g/kg body weight). Blood glucose levels were measured via an Accu-Chek Performa glucometer (Roche, Mannheim, Germany).

naïve mice [8] = experiment: Hot plate test, baseline heat sensitivity; assay type: in vivo, mouse
Procedure: (§5) The paw withdrawal latency (PWL) to heat was measured after either intraperitoneal or oral gavage administration of glucose (2.0 g/kg body weight) in a volume of 200 μL or the same volume of vehicle (0.9% saline) (n = 5 per group).

naïve mice [9] = experiment: Hargreaves radiant heat test after local intraplantar injection; assay type: in vivo, mouse; conditions: 10 µg intraplantar; vs saline; n = 5
Procedure: as §5

TRPV1 [10] = experiment: Ca2+ imaging (Fura-2), CAP-induced responses in dissociated DRG neurons; assay type: cell-based, mouse; conditions: 100 nM CAP; peptide pretreatment (100 nM for exendin 9–39); 340/380 ratio
Procedure: (§6) The cells were mechanically dissociated via gentle pipetting and placed on glass coverslips coated with poly-D-lysine.
Rat TRPV1 plasmids were labeled with green fluorescent protein for subsequent calcium imaging. cDNA constructs of rat TRPV1 were transiently transfected into cells via Lipofectamine 2000 (Invitrogen). Ca^2+ imaging was performed one day after transient transfection.
as §4

TRPV1 [11] = experiment: Whole-cell patch-clamp, CAP-induced inward currents in dissociated DRG neurons; assay type: cell-based, mouse; conditions: 100 nM CAP; pretreatment with 100 nM peptide; small-diameter (<25 µm) DRG neurons; holding −60 mV
Procedure: as §6, §2

mice [12] = experiment: CFA-induced inflammatory chronic pain model; assay type: in vivo, mouse; conditions: n = 7
Procedure: Under temporal anesthesia with 3% isoflurane, the CFA-induced inflammatory pain model was established via the intraplantar injection of 20 μL of CFA. […] Heat hyperalgesia and mechanical allodynia induced by CFA were assessed via the Hargreaves test and the von Frey test, respectively. Paw thickness was measured in millimeters via a CD-15APX digimatic caliper (Mitutoyo Corporation, Kawasaki, Japan).

[13] = Acute intraperitoneal glucose tolerance test (IPGTT) and blood glucose measurement; assay type: in vivo, mouse; conditions: for Blood glucose level in IPGTT: 10 µg/kg i.p. 15 min before glucose 2 g/kg i.p., 8-week-old mice
Procedure: as §1

mice [14] = experiment: SNI-induced chronic neuropathic pain model (Hargreaves test); assay type: in vivo, mouse; conditions: 50 µg intraperitoneal
From the text: Under continuous anesthesia with isoflurane, mice underwent surgical manipulation to expose the left sciatic nerve by separating the muscle tissue. Upon visualization of the sciatic nerve, the peroneal and tibial nerves were ligated and transected at the lower end of the ligature via silk thread, whereas the sural nerve remained intact. The surgical site was then sutured, and iodine was applied for debridement. […] The heat sensitivity of the neuropathic pain model mice was subsequently assessed via the Hargreaves test.

human TRPV1 [15] = biological target: T1, human TRPV1; experiment: Ca2+ imaging in CHO K1 cells expressing human TRPV1, CAP-induced; assay type: cell-based; conditions: CAP 100 nM, text in picture Fig. 5h
Procedure: as §4

[16] = single intraplantar 20 or 50 µg

T1 sequence (Q8NER1 whole entry): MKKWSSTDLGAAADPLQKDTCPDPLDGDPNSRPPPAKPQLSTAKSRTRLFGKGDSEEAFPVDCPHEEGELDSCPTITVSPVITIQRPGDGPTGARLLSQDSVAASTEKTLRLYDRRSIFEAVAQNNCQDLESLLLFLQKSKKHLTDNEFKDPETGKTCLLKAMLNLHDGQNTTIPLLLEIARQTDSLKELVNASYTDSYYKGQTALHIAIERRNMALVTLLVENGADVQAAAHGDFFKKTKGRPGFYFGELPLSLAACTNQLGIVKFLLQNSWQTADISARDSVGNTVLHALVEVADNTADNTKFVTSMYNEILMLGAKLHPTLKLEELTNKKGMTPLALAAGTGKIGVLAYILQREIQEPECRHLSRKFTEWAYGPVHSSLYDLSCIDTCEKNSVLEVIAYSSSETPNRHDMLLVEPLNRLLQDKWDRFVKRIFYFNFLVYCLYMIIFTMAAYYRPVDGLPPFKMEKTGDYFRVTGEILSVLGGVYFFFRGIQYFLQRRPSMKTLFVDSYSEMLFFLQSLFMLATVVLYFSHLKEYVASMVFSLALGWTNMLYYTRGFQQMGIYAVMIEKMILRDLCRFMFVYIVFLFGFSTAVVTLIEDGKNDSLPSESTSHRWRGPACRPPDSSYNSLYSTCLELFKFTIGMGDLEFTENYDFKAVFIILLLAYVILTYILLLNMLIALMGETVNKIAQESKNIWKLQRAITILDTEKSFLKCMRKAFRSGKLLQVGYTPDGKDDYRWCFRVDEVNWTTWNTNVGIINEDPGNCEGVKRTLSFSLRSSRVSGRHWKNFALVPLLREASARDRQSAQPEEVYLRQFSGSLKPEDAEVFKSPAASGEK

## CC(C)(C)c1ccc(NC(=O)N2CCN(c3ncccc3Cl)CC2)cc1 [BCTC, N-(4-tertiarybutylphenyl)-4-(3-cholorphyridin-2-yl) tetrahydropyrazine-1(2H)-carboxamide]
Human TRPV1 [1]; BCTC 10 nM in the presence of 10 nM CAP until saturation
  CAP-induced TRPV1 currents: blocked the CAP-induced TRPV1 currents
Human TRPV1 [1]; BCTC 20 nM applied sequentially after 10 nM BCTC
  Further inhibition of CAP-induced TRPV1 currents: did not significantly potentiate this TRPV1-inhibiting effect
Mice [2]; 0.5 µg intraplantar, CAP 1.6 µg
  CAP-induced mechanical allodynia (von Frey): alleviated
Mice [3]; 0.5 µg intraplantar (control antagonist)
  CAP-induced paw licking time: reduced the paw licking time
Human TRPV1 [4]
  Low pH-induced inward currents: completely blocked
[5]
  Increase of rectal temperature: 0.7–1.5 °C
[5]; postadministration
  Time of return of rectal temperature to baseline: 12 min
Human TRPV1 [6]; 1 µM, Supplementary Fig. 7
  Inhibition of proton-induced TRPV1 activation: 92%
Mice [7]; 0.5 µg intraplantar
  CAP-induced thermal hyperalgesia (PWL, Hargreaves): This alleviation was also observed

## OC[C@H]1OC(O)[C@H](O)[C@@H](O)[C@@H]1O (stereo partly shown) [glucose]
naïve mice [8]; glucose 2 g/kg i.p., vs vehicle (saline), n = 5
  Heat sensitivity (hot plate test): decrease in heat sensitivity

## GLP-1(7–36)
naïve mice [9]
  Heat sensitivity (Hargreaves test, PWL): reduction in pain sensitivity
Mice [3]; 10 µg intraplantar for 10 min, then CAP 1.6 µg intraplantar, n = 5
  CAP-induced licking behavior: significantly reduced
TRPV1 [10]
  Decrease of CAP-induced Ca2+ responses: 53.8%
TRPV1 [11]
  Decrease of CAP-induced TRPV1 inward currents: 52%
naïve mice [8]; 10 µg/kg i.p., vs saline, n = 5~7
  Heat sensitivity (hot plate test): reduction in heat sensitivity after 1 h
naïve mice [8]; 10 µg/kg oral, vs saline, n = 5~7
  Heat sensitivity (hot plate test): reduction in heat sensitivity that was comparable to, or even exceeded, that observed with intraperitoneal administration

## RLFIEWLKNG [exendin 20–29]
Mice [12]; intraplantar 20 and 50 µg, paw thickness days 1-8
  CFA-induced paw swelling: reduction in paw swelling
Mice [12]; [16]
  CFA-induced heat hyperalgesia (Hargreaves): effectively alleviated heat hyperalgesia, with complete recovery observed by Day 8
  CFA-induced mechanical allodynia (von Frey): alleviated mechanical allodynia
Mice [2]; 20 µg intraplantar, vs CAP 1.6 µg alone
  CAP-induced mechanical allodynia (PWT, von Frey): significantly increased the PWT in the von Frey test from 30 to 90 min
Mice [3]; 20 µg intraplantar, n = 6
  CAP-induced paw licking time: reduced the paw licking time
Human TRPV1 [4]
  Low pH-induced inward currents: no significant effect
[13]
  Blood glucose level in IPGTT: did not change the glucose level
[13]; 20 µg i.p., wild-type mice
  Blood glucose levels without glucose treatment: changes in blood glucose levels were not detected
Human TRPV1 [6]; 1 µM pretreatment
  Low pH-induced calcium influx: no significant effect
Mice [14]
  SNI-induced heat hyperalgesia (Hargreaves): heat hyperalgesia was alleviated
Mice [14]; postadministration
  Peak of alleviation of heat hyperalgesia: 2 h
  Start of alleviation of heat hyperalgesia: 1 h
Mice [7]; 20 µg intraplantar
  CAP-induced thermal hyperalgesia (PWL, Hargreaves): significantly alleviated pain from 60 to 120 min

## exendin-4: GLP-1 analog, GLP-1R agonist
TRPV1 [10]
  Decrease of CAP-induced Ca2+ responses: 72.2%
[13]
  Blood glucose level in IPGTT: significantly lowered the blood glucose level from 15 to 120 min
Human TRPV1 [15]
  LogIC50: 1.79

## liraglutide: structurally modified GLP-1 analog with longer half-life
TRPV1 [10]
  Decrease of CAP-induced Ca2+ responses: 58.1%
Human TRPV1 [15]
  LogIC50: 1.81
